Data on 5 substances can be found in ChEMBL document CHEMBL5046216, “Disrupting Tryptophan in the Central Hydrophobic Region Selectively Mitigates Immunomodulatory Activities of the Innate Defence Regulator Peptide IDR-1002” (J Med Chem, 2021).

Active and inactive are the calls of the source. The rule behind the calls is not given here.

The subject of series [1] is HBEC3-KT. Nature of the series: Cytotoxicity against human HBEC3-KT incubated for 24 hrs by LDH assay. It counts as functional.
A short description of series [2]: Retention time of the compound by HPLC analysis. In kind it is physicochemical.
Series [3] relates to HBEC3-KT. Nature of the series: Antiinflammatory activity in human HBEC3-KT cells assessed as effect on MCP1 expression measured after 24 hrs by ELISA relative to control. It counts as functional, cell-based. (In general: An ELISA detects its analyte on a solid surface through an enzyme-linked reagent.)
Series [4] concerns HBEC3-KT. Nature of the series: Antiinflammatory activity in human HBEC3-KT cells assessed as fold increase in IL-1RA expression at 10 uM measured after 24 hrs by ELISA relative to control. It counts as functional.
Series [5] concerns HBEC3-KT. Description: Antiinflammatory activity in INFgamma-induced MCP1 expressed in human HBEC3-KT cells assessed as fold change measured after 24 hrs by ELISA relative to control. In kind it is functional.
In series [6] the test system is HBEC3-KT. Description: Antiinflammatory activity in human HBEC3-KT cells assessed as fold increase in STC1 expression at 10 uM measured after 24 hrs by ELISA relative to control. In kind it is functional.
For series [7], the system named is HBEC3-KT. Nature of the series: Immunomodulatory activity in human HBEC3-KT cells assessed as suppression of INFgamma-induced IL-33 at 10 uM preincubated for 30 mins followed by INFgamma stimulation and measured after 24 hrs by Western blot analysis. It counts as functional. The conditions noted are these: 0.5 h. On the technique in general: In western blotting, separated proteins are transferred to a membrane and probed.

Take H-VLRWLIVWRIRK-OH: the Activity in the series on HBEC3-KT [1] was determined as 50%. The Retention_time in series [2] is 17.4 min.

Substance H-VQRWLIVIRIRK-OH yielded an Activity with HBEC3-KT [1] of 50%. In addition, the Retention_time in series [2] is given as 14.48 min.

H-VQRWLIVWRIWK-OH gave an Activity with HBEC3-KT [1] of 50%. The substance further yielded a Retention_time in series [2] of 18.47 min.

As to H-VQRWLIVWVIRK-OH, the Activity in the series with HBEC3-KT [1] stood at 50%. In series [2], this substance had a Retention_time of 18.05 min.

For the substance H-VRRWLIVWRIRK-OH, the Activity entry in the series with HBEC3-KT [1] is listed as “<=15%”; in the series with HBEC3-KT [7], 70%. Also, the result with HBEC3-KT [3] was inactive. The “fold change (FC)” value with HBEC3-KT [4] turned out to be 2.6; with HBEC3-KT [5], 2.9; in the series on HBEC3-KT [6] it was 6. The substance further gave a Retention_time in series [2] of 16.06 min.
